Measurements from the CheMixHub viscosity set.

Assay: xn = mol fraction of the nth substance listed

CC(=O)OC(C)C + Cc1cccc(C)c1
viscosity [mPa·s], 101 kPa
Settings	x1 = 0.0998	x1 = 0.212	x1 = 0.3176	x1 = 0.4048	x1 = 0.5079	x1 = 0.6118	x1 = 0.7201	x1 = 0.8193	x1 = 0.9305
303.15 K	0.544	0.53	0.518	0.509	0.499	0.489	0.481	0.474	0.466
313.15 K	0.488	0.475	0.464	0.456	0.447	0.438	0.43	0.423	0.417

CC(=O)OCC(C)C + Cc1cccc(C)c1
viscosity [mPa·s], 101 kPa
Settings	x1 = 0.094	x1 = 0.1803	x1 = 0.2916	x1 = 0.3889	x1 = 0.4721	x1 = 0.5698	x1 = 0.6807	x1 = 0.7789	x1 = 0.8716	x1 = 0.9307
303.15 K	0.556	0.562	0.572	0.582	0.592	0.602	0.616	0.629	0.641	0.644
313.15 K	0.505	0.508	0.515	0.521	0.527	0.536	0.546	0.555	0.566	0.572

CCCC(=O)O + Cc1cccc(O)c1
viscosity [mPa·s], 101 kPa
Settings	x1 = 0.1119	x1 = 0.2209	x1 = 0.3191	x1 = 0.4306	x1 = 0.5314	x1 = 0.6298	x1 = 0.7257	x1 = 0.8194	x1 = 0.9108
298.15 K	10.28	8.292	6.808	5.408	4.362	3.51	2.822	2.272	1.845
308.15 K	6.028	5.153	4.446	3.724	3.137	2.619	2.167	1.782	1.471
318.15 K	4.743	4.158	3.662	3.14	2.707	2.316	1.957	1.621	1.293

CC(CC(C)(C)C)CC(C)(C)CC(C)(C)C (centres undefined) + Cc1ccccc1
viscosity [mPa·s], 100 kPa
Settings	x2 = 0.4498	x2 = 0.7104	x2 = 0.8804
298.15 K	1.499	0.946	0.684
313.15 K	1.196	0.78	0.58

CCCC(C)O (centres undefined) + Cc1ccccc1
viscosity [mPa·s], 101 kPa
Settings	x1 = 0.1002	x1 = 0.1998	x1 = 0.2999	x1 = 0.3994	x1 = 0.5004	x1 = 0.6006	x1 = 0.6993	x1 = 0.8004	x1 = 0.8998
303.15 K	0.5378	0.5727	0.629	0.6912	0.7892	0.9188	1.129	1.428	1.926
308.15 K	0.5072	0.5384	0.5879	0.6416	0.7284	0.836	1.012	1.259	1.656
313.15 K	0.4802	0.5063	0.5503	0.5965	0.6696	0.7628	0.9099	1.114	1.435
318.15 K	0.4548	0.4776	0.517	0.5583	0.6236	0.7009	0.8268	0.9944	1.26
323.15 K	0.4322	0.4524	0.4862	0.5226	0.5786	0.6466	0.7539	0.8904	1.11

CCOC(=O)C(=O)OCC + Cc1ccccc1
viscosity [mPa·s], 101 kPa
Settings	303.15 K	313.15 K	323.15 K
x1 = 0.0804	0.5603	–	–
x1 = 0.1006	0.581	0.516	0.465
x1 = 0.1644	0.5912	–	–
x1 = 0.2019	0.651	0.578	0.514
x1 = 0.2523	0.6413	–	–
x1 = 0.3013	0.725	0.646	0.571
x1 = 0.3443	0.7072	–	–
x1 = 0.4005	0.811	0.712	0.628
x1 = 0.4403	0.7809	–	–
x1 = 0.502	0.907	0.788	0.691
x1 = 0.5414	0.8798	–	–
x1 = 0.6024	1.028	0.887	0.77
x1 = 0.6481	1.007	–	–
x1 = 0.6988	1.151	0.988	0.855
x1 = 0.7597	1.167	–	–
x1 = 0.7971	1.289	1.095	0.943
x1 = 0.8762	1.38	–	–
x1 = 0.8936	1.442	1.222	1.044

COCCO + Cc1ccccc1
viscosity [mPa·s]
Settings	298.15 K	303.15 K	308.15 K
101 kPa, x1 = 0.0586	0.571	–	0.512
101 kPa, x1 = 0.1696	0.617	–	0.545
101 kPa, x1 = 0.2421	0.654	–	0.571
101 kPa, x1 = 0.3513	0.719	–	0.618
101 kPa, x1 = 0.4555	0.796	–	0.674
101 kPa, x1 = 0.4987	0.833	–	0.7
101 kPa, x1 = 0.5515	0.882	–	0.736
101 kPa, x1 = 0.6515	0.99	–	0.814
101 kPa, x1 = 0.7487	1.118	–	0.905
101 kPa, x1 = 0.8495	1.279	–	1.021
101 kPa, x1 = 0.9558	1.49	–	1.17
101.33 kPa, x1 = 0.1311	–	0.566	–
101.33 kPa, x1 = 0.2283	–	0.608	–
101.33 kPa, x1 = 0.3137	–	0.645	–
101.33 kPa, x1 = 0.4277	–	0.716	–
101.33 kPa, x1 = 0.5253	–	0.784	–
101.33 kPa, x1 = 0.6244	–	0.87	–
101.33 kPa, x1 = 0.7116	–	0.954	–
101.33 kPa, x1 = 0.8018	–	1.057	–
101.33 kPa, x1 = 0.9149	–	1.219	–

CC(=O)OC(C)C + Cc1ccccc1C
viscosity [mPa·s], 101 kPa
Settings	x1 = 0.1037	x1 = 0.2009	x1 = 0.3016	x1 = 0.4027	x1 = 0.5048	x1 = 0.6019	x1 = 0.7013	x1 = 0.8041	x1 = 0.9437
303.15 K	0.669	0.645	0.62	0.595	0.571	0.55	0.527	0.504	0.472
313.15 K	0.596	0.573	0.552	0.53	0.509	0.489	0.47	0.45	0.424

CC(=O)OCC(C)C + Cc1ccccc1C
viscosity [mPa·s], 101 kPa
Settings	x1 = 0.0918	x1 = 0.1798	x1 = 0.2716	x1 = 0.3504	x1 = 0.4528	x1 = 0.5735	x1 = 0.6718	x1 = 0.7786	x1 = 0.8691	x1 = 0.9514
303.15 K	0.694	0.688	0.681	0.675	0.667	0.659	0.653	0.648	0.644	0.641
313.15 K	0.613	0.606	0.6	0.595	0.59	0.585	0.582	0.58	0.578	0.58

CCCC(=O)O + Cc1ccccc1N
viscosity [mPa·s], 100 kPa
Settings	x2 = 0.0971	x2 = 0.1896	x2 = 0.2605	x2 = 0.3617	x2 = 0.4825	x2 = 0.5911	x2 = 0.6776	x2 = 0.7516	x2 = 0.8641
303.15 K	1.59	1.78	1.92	2.12	2.35	2.55	2.71	2.84	3.03
308.15 K	1.42	1.58	1.7	1.87	2.07	2.24	2.37	2.48	2.64
313.15 K	1.26	1.4	1.51	1.66	1.83	1.98	2.1	2.19	2.33
318.15 K	1.1	1.23	1.32	1.45	1.6	1.73	1.83	1.91	2.02

CCCC(=O)O + ClC(Cl)(Cl)Cl
298.15 K, 101 kPa
Settings	viscosity [mPa·s]
x1 = 0.08	0.911
x1 = 0.16	0.925
x1 = 0.24	0.945
x1 = 0.3	0.966
x1 = 0.54	1.079
x1 = 0.64	1.142
x1 = 0.72	1.201
x1 = 0.87	1.331

CCCCBr + ClC(Cl)(Cl)Cl
101 kPa
Settings	viscosity [mPa·s]
295.95 K, x1 = 0.0935	0.874
295.95 K, x1 = 0.1213	0.8589
295.95 K, x1 = 0.171	0.8365
295.95 K, x1 = 0.2166	0.8163
295.95 K, x1 = 0.3376	0.7686
295.95 K, x1 = 0.5094	0.7155
295.95 K, x1 = 0.6766	0.6738
303.45 K, x1 = 0.0948	0.7853
303.45 K, x1 = 0.1316	0.7681
303.45 K, x1 = 0.1914	0.7427
303.45 K, x1 = 0.3229	0.698
303.45 K, x1 = 0.4875	0.6544
303.45 K, x1 = 0.7961	0.5884
313.25 K, x1 = 0.127	0.6844
313.25 K, x1 = 0.2061	0.6557
313.25 K, x1 = 0.2967	0.6297
313.25 K, x1 = 0.4576	0.5922
313.25 K, x1 = 0.6279	0.5598
313.25 K, x1 = 0.761	0.5382
313.25 K, x1 = 0.7961	0.5329

CCCCCCCBr + ClC(Cl)(Cl)Cl
viscosity [mPa·s], 101 kPa
Settings	293.15 K	303.15 K	313.15 K	323.15 K
x1 = 0.123	1.015	0.878	0.769	0.677
x1 = 0.259	1.045	0.905	0.797	0.705
x1 = 0.412	1.09	0.945	0.832	0.738
x1 = 0.584	1.13	0.982	0.865	0.767

CCCCNCCCC + ClC(Cl)(Cl)Cl
298.15 K, 101.3 kPa
Settings	viscosity [mPa·s]
x1 = 0.0922	0.898
x1 = 0.173	0.894
x1 = 0.3108	0.887
x1 = 0.4089	0.881
x1 = 0.5011	0.877
x1 = 0.5964	0.872
x1 = 0.7077	0.864
x1 = 0.7916	0.848
x1 = 0.9034	0.823

CCOC(=O)C(=O)OCC + ClC(Cl)(Cl)Cl
303.15 K, 101 kPa
Settings	viscosity [mPa·s]
x1 = 0.0736	0.915
x1 = 0.1516	0.997
x1 = 0.2345	1.074
x1 = 0.3227	1.155
x1 = 0.4171	1.24
x1 = 0.5177	1.323
x1 = 0.6259	1.402
x1 = 0.7414	1.482
x1 = 0.8658	1.574
